Experimental data: article PMC7883289, “Synthesis of Paeonol-Ozagrel Conjugate: Structure Characterization and In Vivo Anti-Ischemic Stroke potential” (Frontiers in Pharmacology, 2021)

Assays:
[1] = Solubility of POC in solvents (described in words); type: physicochemical
[2] = tested on: middle cerebral artery occlusion (MCAO) rats; experiment: Evaluation of neurological deficit (Longa score) in MCAO rats; type: in vivo; details: 24 h after reperfusion, single iv dose 2 h after reperfusion: paeonol and OS 3 mg/kg, POC 4.5 mg/kg, n = 6
Protocol: Male Sprague Dawley (SD) rats weighing among 220 g-230 g (Anhui Medicine University, Hefei, China; certificate number: SCXK20190,003) were housed under ad libitum access to food and water with a standardized light-dark cycle condition (25 ± 2°C, 12-hour light/dark cycle). All the experimental protocols were performed in accordance with the Institutional Animal Care and Use Committee of Anhui University of Chinese Medicine (Animal ethics number: AHUCM-rats-2019001). We used the minimal number of study animals (n = 6 rats in each group for different experiments). The rats were fastened upon the operating table in a supine position after being anesthetized with 2% pelltobarbitalum natricum (50 mg/kg). After disinfection of the skin within close proximity of the operative region, the right common carotid artery (CCA), external carotid artery (ECA) and internal carotid artery (ICA) were exposed with blunt dissection. The CCA was temporarily ligated and the ECA were permanently ligated ([Liu et al., 2016]). A nylon monofilament surgical thread was introduced into the ICA to block the MCA when the blunted distal end met resistance. After 2 h of occlusion, reperfusion was accomplished to restore blood supply to the MCA area by removing the filament ([Li et al., 2009]; [Zhai et al., 2017]). […] Rats were split randomly into five groups, including the sham, model, paeonol, OS and POC group. […] Neurological deficit was evaluated 24 h after reperfusion (blinded to experimenters). […] The rating score was assessed by the following standard: no neurological deficit, 0; failure to extend left forepaw fully, one; spontaneous circling to the left, two; falling to the left, three; inability to walk spontaneously and coma of consciousness, 4. […] Neurological scores for each group were calculated using six rats according to a sample size calculation (α err prob = 0.05, 1-β err prob = 0.95) and references ([Katayama et al., 2017]; [[…] al., 2019]; [Zheng et al., 2019]).

[3] = tested on: middle cerebral artery occlusion (MCAO) rats; experiment: HE staining, histopathologic changes in brain cortex of MCAO rats; type: in vivo; details: 24 h after treatment, POC 4.5 mg/kg iv, compared with the model group, n = 3
Protocol: Male Sprague Dawley (SD) rats weighing among 220 g–230 g (Anhui Medicine University, Hefei, China; certificate number: SCXK20190,003) were housed under ad libitum access to food and water with a standardized light-dark cycle condition (25 ± 2°C, 12–hour light/dark cycle). All the experimental protocols were performed in accordance with the Institutional Animal Care and Use Committee of Anhui University of Chinese Medicine (Animal ethics number: AHUCM–rats–2019001). We used the minimal number of study animals (n = 6 rats in each group for different experiments). The rats were fastened upon the operating table in a supine position after being anesthetized with 2% pelltobarbitalum natricum (50 mg/kg). After disinfection of the skin within close proximity of the operative region, the right common carotid artery (CCA), external carotid artery (ECA) and internal carotid artery (ICA) were exposed with blunt dissection. The CCA was temporarily ligated and the ECA were permanently ligated ([Liu et al., 2016]). A nylon monofilament surgical thread was introduced into the ICA to block the MCA when the blunted distal end met resistance. After 2 h of occlusion, reperfusion was accomplished to restore blood supply to the MCA area by removing the filament ([Li et al., 2009]; [Zhai et al., 2017]). […] Rats were split randomly into five groups, including the sham, model, paeonol, OS and POC group. […]

Compound: COc1ccc(C(C)=O)c(OC(=O)C=Cc2ccc(Cn3ccnc3)cc2)c1 [POC, paeonol-ozagrel conjugate]
- solubility in ethyl acetate ([1]; ethyl acetate): slightly soluble
- solubility in methanol and ethanol ([1]; methanol and ethanol): easily soluble
- solubility in water ([1]; water): almost insoluble or insoluble
- neurological deficits score (Longa, 0-4) [2]: 1.50 ± 0.55
- histopathologic changes in brain cortex (HE) [3]: only marginal neuronal cells damage
